Assay results published in US6428997B1, “Aminopeptidase derived from Bacillus licheniformis and process for preparation of natural type proteins” (LG Chemical Ltd., priority 1997, dated 2002).

How the values were obtained:
aminopeptidase = test: Effect of chemical materials affecting enzyme activity of aminopeptidase; type: biochemical, Bacillus licheniformis
Protocol: (§1) In order to examine chemical materials affecting enzyme activity of aminopeptidase, enzyme activities of aminopeptidase treated for 2 hours with dithiotreitol, iodoacetic acid, ortho-phenanthroline and EDTA as 1, 5 and 20 mMJ respectively were measured.

[1] = Moore, Endocrinology 1988; cited from earlier work
[2] = biological target: T1, aminopeptidase of Bacillus licheniformis ATCC 12759 (N-terminal sequence SEQ ID NO: 3) (Bacillus licheniformis, UniProt Q65DH7); test: Effect of chemical materials on aminopeptidase activity (2 h treatment, leucine-p-nitroanilide substrate); type: biochemical; conditions: treated 2 hours, 0 mM = 100, read-out: relative activity
T1 sequence (Q65DH7 43-449 limits assumed): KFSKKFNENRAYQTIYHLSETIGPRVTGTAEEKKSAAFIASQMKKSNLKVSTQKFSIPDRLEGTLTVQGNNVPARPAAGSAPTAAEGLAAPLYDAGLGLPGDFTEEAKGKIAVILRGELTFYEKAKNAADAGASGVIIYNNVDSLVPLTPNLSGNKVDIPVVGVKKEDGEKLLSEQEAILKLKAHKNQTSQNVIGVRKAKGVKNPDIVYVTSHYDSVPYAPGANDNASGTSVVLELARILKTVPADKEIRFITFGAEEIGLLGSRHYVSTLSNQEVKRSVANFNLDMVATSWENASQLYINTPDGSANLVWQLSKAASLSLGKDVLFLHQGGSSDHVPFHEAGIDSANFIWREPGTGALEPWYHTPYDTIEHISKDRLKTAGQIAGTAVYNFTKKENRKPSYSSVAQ
Protocol: Aminopeptidase activities of this invention were measured by the method of Pfleiderer (Pfleiderer, Meth. Enzymol., 19, 514-521, 1970). Precisely, 1 U of enzyme activity defines the enzyme quantity changing 1 absorbance at 405 nm which is measured by the process adding aminopeptidase in 1 ml solution of […] Tris-Cl (pH 8.0) and 2 mM leucine-p-nitroanilide (Sigma, USA), incubating at 37° C. for 1 min, then adding 100 μl of 70% acetic acid to stop the reaction. At that time leucine-p-nitroanilide was dissolved in dimethylsulfoxide (DMSO) to make 100 mM solution.
as §1

[3] = aminopeptidase treated for 2 hours with 1 mM chemical
[4] = aminopeptidase treated for 2 hours with 5 mM chemical
[5] = aminopeptidase treated for 2 hours with 20 mM chemical

| Compound | effect on aminopeptidase activity (in words) (aminopeptidase) | relative activity (%) (aminopeptidase; [3]) | relative activity (%) (aminopeptidase; [4]) | relative activity (%) (aminopeptidase; [5]) | biological activity compared with natural type HGH [1] | activity at 1000 µM ([2]; pH 8, 1 mM chemical) | activity at 5000 µM ([2]; pH 8, 5 mM chemical) | activity at 20000 µM ([2]; pH 8, 20 mM chemical) |
| --- | --- | --- | --- | --- | --- | --- | --- | --- |
| O=C(O)CI [iodoacetic acid] | inhibited | 98.1% | 104.2% | 0% | – | – | – | – |
| O=C(O)CN(CCN(CC(=O)O)CC(=O)O)CC(=O)O [EDTA, ethylenediaminetetraacetic acid] | inhibited partially | 93.8% | 83.4% | 66.3% | – | – | – | – |
| methionyl HGH: recombinant human growth hormone of 192 amino acids with Met-Phe-Pro-Thr sequence at the N-terminus | – | – | – | – | the same activity with that of natural type HGH | – | – | – |
| c1cnc2c(c1)ccc1cccnc12 [ortho-penanthroline, ortho-phenanthroline] | inhibited | 91.9% | 86.8% | 4.7% | – | 91.9% | 86.8% | 4.7% |
| O[C@H](CS)[C@H](O)CS (racemic) [dithiotreitol, dithiothreitol] | inhibited | 0.8% | 0% | 0% | – | – | – | – |
